According to patent publication US10407395B2, “Benzimidazole compound and medical use thereof” (Sumitomo Dainippon Pharma Co., Ltd., priority 2015, dated 2019):
Like-named read-outs stand apart in the source and are kept apart here.

Experiments:
[1] = target: human SCN9A (Nav 1.7) (Homo sapiens, UniProt Q15858); assay: Measurement of Na ion current (Nav 1.7) by automated patch clamp assay in cells stably-expressing human SCN9A; type: cell-based; conditions: read-out: Inhibitory rate (%) of Na ion current
Chain of human SCN9A (Nav 1.7) (Q15858 whole entry): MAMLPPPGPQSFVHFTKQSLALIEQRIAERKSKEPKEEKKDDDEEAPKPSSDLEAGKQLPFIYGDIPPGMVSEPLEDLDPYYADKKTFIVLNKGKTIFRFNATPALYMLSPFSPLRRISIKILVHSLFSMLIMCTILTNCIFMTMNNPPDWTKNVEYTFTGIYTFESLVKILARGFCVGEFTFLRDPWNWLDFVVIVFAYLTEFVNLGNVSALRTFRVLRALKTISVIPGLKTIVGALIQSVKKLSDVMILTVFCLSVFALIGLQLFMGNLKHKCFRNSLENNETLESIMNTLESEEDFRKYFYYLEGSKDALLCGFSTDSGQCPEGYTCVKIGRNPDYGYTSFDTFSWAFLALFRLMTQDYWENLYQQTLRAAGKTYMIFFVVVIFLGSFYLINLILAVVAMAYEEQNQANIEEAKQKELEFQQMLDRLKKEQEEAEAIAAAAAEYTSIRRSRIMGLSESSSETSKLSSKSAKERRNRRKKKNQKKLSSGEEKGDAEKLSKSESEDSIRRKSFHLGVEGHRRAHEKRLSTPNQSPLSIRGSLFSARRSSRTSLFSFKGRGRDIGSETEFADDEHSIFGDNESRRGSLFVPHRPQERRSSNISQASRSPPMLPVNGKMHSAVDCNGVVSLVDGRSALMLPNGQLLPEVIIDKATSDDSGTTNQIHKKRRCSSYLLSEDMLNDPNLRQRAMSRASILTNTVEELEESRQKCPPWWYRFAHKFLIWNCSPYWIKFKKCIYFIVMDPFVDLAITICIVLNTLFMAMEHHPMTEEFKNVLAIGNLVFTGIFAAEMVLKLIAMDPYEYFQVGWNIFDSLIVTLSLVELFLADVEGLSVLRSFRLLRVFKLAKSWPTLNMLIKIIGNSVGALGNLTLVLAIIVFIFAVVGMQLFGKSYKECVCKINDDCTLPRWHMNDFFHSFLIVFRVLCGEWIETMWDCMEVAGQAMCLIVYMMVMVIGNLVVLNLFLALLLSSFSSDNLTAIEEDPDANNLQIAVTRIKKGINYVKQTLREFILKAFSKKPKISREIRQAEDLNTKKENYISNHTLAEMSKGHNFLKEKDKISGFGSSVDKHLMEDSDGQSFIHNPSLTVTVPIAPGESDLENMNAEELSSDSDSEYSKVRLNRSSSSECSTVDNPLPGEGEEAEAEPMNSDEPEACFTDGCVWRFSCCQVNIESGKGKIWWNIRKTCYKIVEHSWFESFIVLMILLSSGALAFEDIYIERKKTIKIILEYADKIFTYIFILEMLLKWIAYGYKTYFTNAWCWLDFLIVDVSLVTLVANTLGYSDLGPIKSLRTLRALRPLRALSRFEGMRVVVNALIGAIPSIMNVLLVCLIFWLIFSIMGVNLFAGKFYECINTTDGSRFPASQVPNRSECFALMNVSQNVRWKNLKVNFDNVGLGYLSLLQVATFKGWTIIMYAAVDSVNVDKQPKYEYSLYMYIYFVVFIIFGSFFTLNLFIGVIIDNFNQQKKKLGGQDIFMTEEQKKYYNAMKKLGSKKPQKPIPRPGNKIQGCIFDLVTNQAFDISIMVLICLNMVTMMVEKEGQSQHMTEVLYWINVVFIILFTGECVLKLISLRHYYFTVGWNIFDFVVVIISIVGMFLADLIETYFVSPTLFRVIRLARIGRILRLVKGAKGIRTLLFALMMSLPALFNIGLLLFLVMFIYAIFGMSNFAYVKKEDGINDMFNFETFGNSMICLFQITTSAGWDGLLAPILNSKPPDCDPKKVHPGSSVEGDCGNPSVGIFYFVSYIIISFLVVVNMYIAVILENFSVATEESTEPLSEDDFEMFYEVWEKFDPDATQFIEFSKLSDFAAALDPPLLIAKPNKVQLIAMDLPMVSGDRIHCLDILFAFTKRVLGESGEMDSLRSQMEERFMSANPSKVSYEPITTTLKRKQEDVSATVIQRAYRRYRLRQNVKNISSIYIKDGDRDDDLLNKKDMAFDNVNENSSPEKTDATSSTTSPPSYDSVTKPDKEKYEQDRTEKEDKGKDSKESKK
Description: Measurement of Na Ion Current in Voltage-Dependent Na Channel Gene Expressed Cell Nav 1.7 current was measured by automated patch clamp assay using cells stably-expressing human SCN9A. Cells Stably-expressing Human SCN9A Tetracycline-induced cells stably-expressing SCN9A were obtained from ChanTest Corporation. […] Next day, the Na ion current was measured by automated patch clamp assay. Electrophysiologic Measurement of Na Ion Current The Na ion current was measured by automated patch clamp assay using the following extracellular solution and intracellular solution. […] The control of the stimulating pulse and the data acquisition were carried out using EPC10 amplifier and Patch Master Software (HEKA). Data were sampled at 10 kHz, and low-pass filtered at 3 kHz. All the measurements were carried out at room temperature. […] The inhibitory rate of the Na ion current by the test compounds was calculated according to the following calculating formula with the peak current value generated by the depolarizing pulse. […] The inhibitory rate of Na ion current by each Example Compound was evaluated.

[2] = tested on: rats streptozotocin (STZ)-induced diabetic peripheral neuropathy model; assay: Evaluation of analgesic effect (von Frey test) in streptozotocin-induced diabetic peripheral neuropathy model; type: in vivo, rat; conditions: male Wistar rats, 3 mg/kg of body weight, orally, one hour before measuring
Description: Test (2) Evaluation of Analgesic Effect in Streptozotocin-Induced Diabetic Peripheral Neuropathy Models
Using some typical compounds among the compounds of the present invention, the inhibitory effect for neuropathic pain was determined through the evaluation of analgesic effect in rats streptozotocin (STZ)-induced diabetic peripheral neuropathy model.
The disease animal model was prepared by means of a partially-modified method of Fox et al. (Pain 81, 307-316, 1999). STZ was intraperitoneally administered to 9-week old male Wistar rats in 45 mg/kg of body weight to prepare animal model suffering from diabetic peripheral neuropathy. The analgesic effect was evaluated by von Frey test. Specifically, mechanical sensitivity was measured by applying hairs (von Frey hair) to the plantar surface of the animal's hind paw, and then the reaction thresholds (50% paw withdrawal thresholds) for the mechanical stimulation was determined by using a formula based on Chaplan et al. (Journal of Neuroscience Methods 53, 55-63, 1994).
One and two days before evaluating the test compounds, the reaction thresholds were measured to obtain an average thereof, and the average value was used as a reference value obtained before the test compounds would be administered.
In order to reduce the variations of the averaged values among the test groups and the measured values in each group, the animals were divided into 4 to 5 groups.
In the evaluation test of the test compounds, the reaction thresholds were measured after administering each test compound. One hour before measuring the reaction thresholds, each test compound was administered in 3 mg/kg of body weight. The strength of analgesic effect of each test compound is expressed as the extension width (g) of reaction thresholds which is obtained by the calculation formula of (reaction threshold obtained after administering test compound)−(reaction threshold obtained before administering test compound).

[3] = compound concentration 10 μmol/L, holding potential inactivating 50% Nav 1.7 channel (around −60 mV)

SMILES | inhibition at 10 µM [1, 3] | other results
CC(C)(O)Cn1cnc2ccc(Oc3ccc(F)cc3)cc21 [Example 1, 1-[6-(4-fluorophenoxy)-1H-benzimidazol-1-yl]-2-methylpropan-2-ol] | 83% | extension width (g) of reaction thresholds (50% paw withdrawal threshold after minus before administering test compound) [2]: 2.8 g
CC(C)(O)Cn1cnc2ccc(Oc3ccc(Cl)cc3)cc21 [Example 20, 1-[6-(4-chlorophenoxy)-1H-benzimidazol-1-yl]-2-methylpropan-2-ol] | – | inhibition at 10 µM [1]: 91%; extension width (g) of reaction thresholds (50% paw withdrawal threshold after minus before administering test compound) [2]: 2.9 g
CC(C)(O)Cn1cnc2ccc(Oc3ccc(C(F)(F)F)cn3)cc21 [Example 28, 2-methyl-1-(6-{[5-(trifluoromethyl)pyridin-2-yl]oxy}-1H-benzimidazol-1-yl)propan-2-ol] | 82% | extension width (g) of reaction thresholds (50% paw withdrawal threshold after minus before administering test compound) [2]: 6 g
CC(C)(O)CCn1cnc2ccc(Oc3ccc(C(F)(F)F)cn3)cc21 [Example 59, 2-methyl-4-(6-{[5-(trifluoromethyl)pyridin-2-yl]oxy}-1H-benzimidazol-1-yl)butan-2-ol] | 49% | extension width (g) of reaction thresholds (50% paw withdrawal threshold after minus before administering test compound) [2]: 5.1 g
OC1(Cn2cnc3ccc(Oc4ccc(OC(F)(F)F)cc4)cc32)COC1 [Example 94, 3-({6-[4-(trifluoromethoxy)phenoxy]-1H-benzimidazol-1-yl}methyl)oxetan-3-ol] | 73% | extension width (g) of reaction thresholds (50% paw withdrawal threshold after minus before administering test compound) [2]: 4.9 g
CC(C)(O)CCn1cnc2ccc(Oc3ccc(Cl)cc3)cc21 [Example 101, 4-[6-(4-chlorophenoxy)-1H-benzimidazol-1-yl]-2-methylbutan-2-ol] | 43% | extension width (g) of reaction thresholds (50% paw withdrawal threshold after minus before administering test compound) [2]: 1.4 g
O[C@H]1CC[C@@H](n2cnc3ccc(Oc4ccc(C(F)(F)F)cn4)cc32)CC1 [Example 118, cis-4-(6-{[5-(trifluoromethyl)pyridin-2-yl]oxy}-1H-benzimidazol-1-yl)cyclohexanol] | 33% | extension width (g) of reaction thresholds (50% paw withdrawal threshold after minus before administering test compound) [2]: 3.4 g
CC(C)(O)Cn1cnc2ccc(-c3ccc(C(F)(F)F)cc3F)cc21 [Example 123, 1-{6-[2-fluoro-4-(trifluoromethyl)phenyl]-1H-benzimidazol-1-yl}-2-methylpropan-2-ol] | 64% | extension width (g) of reaction thresholds (50% paw withdrawal threshold after minus before administering test compound) [2]: 1.3 g
COc1cc(C(F)(F)F)ccc1-c1ccc2ncn(CC3(O)COC3)c2c1 [Example 148, 3-({6-[2-methoxy-4-(trifluoromethyl)phenyl]-1H-benzimidazol-1-yl}methyl)oxetan-3-ol] | 59% | extension width (g) of reaction thresholds (50% paw withdrawal threshold after minus before administering test compound) [2]: 3.7 g
CC(C)(O)Cn1cnc2cc(-c3ccc(C(F)(F)F)cc3Cl)ccc21 [Example 192] | 78% | –
CC(C)(O)Cn1cnc2cc(-c3ccc(S(C)(=O)=O)cc3C(F)(F)F)ccc21 [Example 193] | 23% | –
CC(C)(O)Cn1cnc2cc(-c3cccc(C(F)(F)F)c3)ccc21 [Example 194] | 43% | –
CC(C)(O)Cn1cnc2cc(-c3ccccc3Cl)ccc21 [Example 195] | 31% | –
CC(C)(O)Cn1cnc2cc(-c3cccc(Cl)c3)ccc21 [Example 196] | 49% | –
CC(C)(O)Cn1cnc2cc(-c3ccccc3OC(F)(F)F)ccc21 [Example 197] | 33% | –
CC(C)(O)Cn1cnc2cc(-c3cccc(OC(F)(F)F)c3)ccc21 [Example 198] | 58% | –
COc1cc(-c2ccc3c(c2)ncn3CC(C)(C)O)cc(C(F)(F)F)c1 [Example 199] | 84% | –
CC(C)(O)Cn1cnc2cc(-c3cc(F)cc(Cl)c3)ccc21 [Example 200] | 52% | –
CC(C)(O)Cn1cnc2cc(-c3ccc4ocnc4c3)ccc21 [Example 201] | 32% | –
CC(C)(O)Cn1cnc2cc(-c3cnoc3)ccc21 [Example 202] | 21% | –
OC1(Cn2cnc3cc(-c4ccc(C(F)(F)F)cc4F)ccc32)COC1 [Example 203] | 26% | –
OC1(Cn2cnc3cc(-c4ccc(OC(F)(F)F)cc4)ccc32)COC1 [Example 204] | 28% | –
OC1(Cn2cnc3cc(-c4ccc(C(F)(F)F)cc4Cl)ccc32)COC1 [Example 206] | 69% | –

SMILES | inhibition at 10 µM [1, 3] | other results
OC1(Cn2cnc3cc(-c4ccc(Cl)cc4C(F)(F)F)ccc32)COC1 [Example 207] | 65% | –
Cc1c(Cl)cccc1-c1ccc2c(c1)ncn2CC1(O)COC1 [Example 208] | 43% | –
Cc1ccc(Cl)cc1-c1ccc2c(c1)ncn2CC1(O)COC1 [Example 209] | 48% | –
OC1(Cn2cnc3cc(-c4cc(C(F)(F)F)ccc4F)ccc32)COC1 [Example 210] | 48% | –
OC1(Cn2cnc3cc(-c4cc(C(F)(F)F)ccc4Cl)ccc32)COC1 [Example 211] | 44% | –
COc1cc(-c2ccc3c(c2)ncn3CC2(O)COC2)cc(C(F)(F)F)c1 [Example 212] | 55% | –
Cc1cc(-c2ccc3c(c2)ncn3CC2(O)COC2)cc(C(F)(F)F)c1 [Example 213] | 41% | –
OC1(Cn2cnc3cc(-c4cc(F)cc(Cl)c4)ccc32)COC1 [Example 214] | 42% | –
Cc1c(-c2ccc3c(c2)ncn3CC2(O)COC2)cccc1C(F)(F)F [Example 215] | 84% | –
COc1cccc(-c2ccc3c(c2)ncn3CC2(O)COC2)c1Cl [Example 216] | 53% | –
OC1(Cn2cnc3cc(-c4cccc(C(F)(F)F)c4Cl)ccc32)COC1 [Example 217] | 60% | –
Cc1cc(Cl)cc(-c2ccc3c(c2)ncn3CC2(O)COC2)c1 [Example 218] | 53% | –
CC(C)(O)CCn1cnc2cc(-c3ccc(F)cc3)ccc21 [Example 219] | 40% | –
CC(C)(O)CCn1cnc2cc(-c3ccc(Cl)cc3)ccc21 [Example 220] | 52% | –
CC(C)(O)CCn1cnc2cc(-c3ccc(C(F)(F)F)cc3)ccc21 [Example 221] | 45% | –
COc1cc(C(F)(F)F)ccc1-c1ccc2c(c1)ncn2CCC(C)(C)O [Example 222] | 45% | –
CC(C)(O)CCn1cnc2cc(-c3ccc(C(F)(F)F)cc3F)ccc21 [Example 223] | 47% | –
CC(C)(O)Cn1cnc2cc(Oc3ccc(C(F)(F)F)cc3F)ccc21 [Example 224, 1-{5-[2-fluoro-4-(trifluoromethyl)phenoxy]-1H-benzimidazol-1-yl}-2-methylpropan-2-ol] | 53% | –
CC(C)(O)Cn1cnc2cc(Oc3ccc(C(F)(F)F)cc3)ccc21 [Example 225] | 64% | –
OC1(Cn2cnc3cc(Oc4ccc(C(F)(F)F)cc4)ccc32)COC1 [Example 226] | 45% | –
C[C@](O)(CO)Cn1cnc2ccc(Oc3ccc(C(F)(F)F)cn3)cc21 [Example 227, (2R)-2-methyl-3-(6-{[5-(trifluoromethyl)pyridin-2-yl]oxy}-1H-benzimidazol-1-yl)propane-1,2-diol] | 11% | –
C[C@@H](n1cnc2ccc(Oc3ccc(C(F)(F)F)cn3)cc21)C(C)(C)O [Example 228, (3R)-2-methyl-3-(6-{[5-(trifluoromethyl)pyridin-2-yl]oxy}-1H-benzimidazol-1-yl)butan-2-ol] | – | inhibition at 100 µM ([1]; compound concentration 100 μmol/L (footnoted examples), holding potential inactivating 50% Nav 1.7 channel (around −60 mV)): 66%
